Target: T1, Polyphenol oxidase 2 (Agaricus bisporus, UniProt O42713)
T1 sequence (O42713 whole entry): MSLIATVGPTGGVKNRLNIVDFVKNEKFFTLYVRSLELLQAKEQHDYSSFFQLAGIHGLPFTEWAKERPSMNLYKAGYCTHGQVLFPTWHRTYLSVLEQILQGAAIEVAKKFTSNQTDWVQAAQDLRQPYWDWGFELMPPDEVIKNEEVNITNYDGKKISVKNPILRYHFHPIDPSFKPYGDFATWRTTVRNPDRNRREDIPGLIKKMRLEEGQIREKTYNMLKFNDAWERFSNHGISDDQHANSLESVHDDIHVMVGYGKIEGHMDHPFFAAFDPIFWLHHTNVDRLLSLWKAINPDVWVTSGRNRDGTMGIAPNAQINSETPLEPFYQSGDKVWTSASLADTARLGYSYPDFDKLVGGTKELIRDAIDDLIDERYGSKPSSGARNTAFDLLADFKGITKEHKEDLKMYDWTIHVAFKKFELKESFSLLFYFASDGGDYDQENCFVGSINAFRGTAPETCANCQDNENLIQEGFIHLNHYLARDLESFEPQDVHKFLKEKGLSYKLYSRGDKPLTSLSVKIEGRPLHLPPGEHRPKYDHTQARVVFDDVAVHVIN
Experiment: Spectrophotometric Assay
Conditions: pH 6.8; 25 °C
Experimental: All compounds were dissolved in DMSO (final DMSO concentration in test solution was 2.0%). Phosphate buffer, pH 6.8, was use to dilute the DMSO stock solution of test compounds. Thirty units of mushroom tyrosinase (0.5 mg/mL) were first pre-incubated with the compounds, in 50 mM phosphate buffer (pH 6.8), for 10 min at 25°C, followed by addition of L-DOPA (0.5 mM). The enzyme reaction was monitored by measuring the change in absorbance at 475 nm of formation of the DOPA chrome for 1 min. The measurement was performed in triplicate for each concentration and averaged before further calculation.

SMILES: O=C(/C=C/c1ccccc1)c1ccc(O)cc1O [1-(2,4-dihydroxyphenyl)-3-phenylprop-2-en-1-one (4)]
- IC50: 110 µM

SMILES: O=C(/C=C/c1ccccc1)c1cccc(Cl)c1 [1-(3-chlorophenyl)-3-phenylprop-2-en-1-one (11)]
- IC50: 117 µM

SMILES: COc1ccc(C(=O)/C=C/c2ccccc2)cc1 [1-(4-methoxyphenyl)-3-phenylprop-2-en-1-one (6)]
- IC50: 142 µM

Source: BindingDB's records for doi:10.1111/cbdd.12126 (Shaoyang University, 2013)
